Laboratory results: paper PMC7125863 (Bioorganic & Medicinal Chemistry, 2013)

Tests used:
[1] = test system: human cytomegalovirus (HCMV) strain Davis; assay: Anti-HCMV assay, strain Davis; format: cell-based; details: in parentheses
[2] = test system: human cytomegalovirus (HCMV) strain AD-169; assay: Anti-HCMV assay, strain AD169; format: cell-based; details: in parentheses
in vitro = details: human
[3] = molecular target: wild-type HIV-1 reverse transcriptase (Human immunodeficiency virus type 1 group M subtype B, UniProt P04585); assay: RT enzyme assay, wild-type RT; format: biochemical
HIV-1 (IIIB) wild type = assay: Anti-HIV assay in MT-4 cell cultures; details: MT-4 cells
HIV-1 RT K103N/Y181C = HIV-1 RT K103N/Y181C (Human immunodeficiency virus type 1 group M subtype B, UniProt P04585, K690N/Y768C); assay: biochemical
HIV-1 RT K103N = HIV-1 RT K103N (Human immunodeficiency virus type 1 group M subtype B, UniProt P04585, K690N); assay: biochemical

| Structure (SMILES) | SI [1] | SI [2] | CC50 (in vitro) | further results |
| --- | --- | --- | --- | --- |
| Nc1ccn(C[C@@H](CO)OCP(=O)(O)O)c(=O)n1.O.O [Cidofovir, reference compound] | 63 | 64 | 63 µM |  |
| Cc1ccccc1OCCn1ccc(=O)n(Cc2ccccc2)c1=O [Compound 5, 3-Benzyl-1-[2-(2-methylphenoxy)ethyl]uracil] |  |  |  | Ki [3]: > 100 µM |
| Cc1cccc(OCCn2ccc(=O)n(Cc3ccccc3)c2=O)c1 [Compound 6, 3-Benzyl-1-[2-(3-methylphenoxy)ethyl]uracil] |  |  |  | Ki [3]: > 100 µM |
| Cc1ccc(OCCn2ccc(=O)n(Cc3ccccc3C)c2=O)cc1 [Compound 15, 3-(2-Methylbenzyl)-1-[2-(4-methylphenoxy)ethyl]uracil] |  |  |  | Ki [3]: > 100 µM |
| Cc1ccc(OCCn2ccc(=O)n(Cc3cccc(C)c3)c2=O)cc1 [Compound 16, 3-(3-Methylbenzyl)-1-[2-(4-methylphenoxy)ethyl]uracil] |  |  |  | SI, selectivity index, ratio CC50/IC50 (HIV-1 (IIIB) wild type): ⩾11 |
| Cc1ccc(OCCn2ccc(=O)n(Cc3cc(C)cc(C)c3)c2=O)cc1 [Compound 19, 1-[2-(4-Methylphenoxy)ethyl]-3-(3,5-dimethylbenzyl)uracil] |  |  |  | Ki (HIV-1 RT K103N/Y181C): > 26 µM; Ki (HIV-1 RT K103N): > 26 µM |
| Cc1ccc(OCCn2ccc(=O)n(Cc3c(C)cc(C)cc3C)c2=O)cc1 [Compound 20, 1-[2-(4-Methylphenoxy)ethyl]-3-(2,4,6-trimethylbenzyl)-uracil] |  |  |  | Ki [3]: > 100 µM |
| Cc1cc(C)cc(Cn2c(=O)ccn(C/C=C/c3ccccc3)c2=O)c1 [Compound 30, 1-Cinnamyl-3-(3,5-dimethylbenzyl)uracil] |  |  |  | Ki (HIV-1 RT K103N/Y181C): > 100 µM |
| O=c1ccn(C/C=C/c2ccccc2)c(=O)n1Cc1cc(F)cc(F)c1 [Compound 31, 1-Cinnamyl-3-(3,5-difluorobenzyl)uracil] | 1.13 | 1.38 | 51 µM |  |
| O=c1ccn(C/C=C/c2ccccc2)c(=O)n1Cc1cc(Cl)cc(Cl)c1 [Compound 32, 1-Cinnamyl-3-(3,5-dichlorobenzyl)uracil] | 9 | 11 | ≥ 100 µM | Ki (HIV-1 RT K103N/Y181C): > 100 µM |
| O=c1ccn(C/C=C/c2ccccc2)c(=O)n1Cc1cc(Br)cc(Br)c1 [Compound 33, 1-Cinnamyl-3-(3,5-dibromobenzyl)uracil] |  |  |  | Ki (HIV-1 RT K103N/Y181C): > 100 µM |
| Cc1cc(Br)cc(Cn2c(=O)ccn(C/C=C/c3ccccc3)c2=O)c1 [Compound 34, 3-(3-Bromo-5-methylbenzyl)-1-cinnamyluracil] | 5 | 6 | ≥ 100 µM |  |
| O=c1ccn(C/C=C/c2ccccc2)c(=O)n1Cc1cccc2ccccc12 [Compound 35, 1-Cinnamyl-3-(1-naphthylmethyl)uracil] | 16 | 7 | ≥ 100 µM |  |
| Nc1nc2c(ncn2COC(CO)CO)c(=O)[nH]1 [Ganciclovir, reference compound] | 23 | 21 | 132 µM |  |
